Biological target: Beta-2 adrenergic receptor (Rattus norvegicus) (UniProt P10608)
Test: Inhibition of beta-2 adrenergic receptor isolated from rat lung homogenates

Beta-2 adrenergic receptor (Rattus norvegicus), sequence (P10608 whole entry, looked up): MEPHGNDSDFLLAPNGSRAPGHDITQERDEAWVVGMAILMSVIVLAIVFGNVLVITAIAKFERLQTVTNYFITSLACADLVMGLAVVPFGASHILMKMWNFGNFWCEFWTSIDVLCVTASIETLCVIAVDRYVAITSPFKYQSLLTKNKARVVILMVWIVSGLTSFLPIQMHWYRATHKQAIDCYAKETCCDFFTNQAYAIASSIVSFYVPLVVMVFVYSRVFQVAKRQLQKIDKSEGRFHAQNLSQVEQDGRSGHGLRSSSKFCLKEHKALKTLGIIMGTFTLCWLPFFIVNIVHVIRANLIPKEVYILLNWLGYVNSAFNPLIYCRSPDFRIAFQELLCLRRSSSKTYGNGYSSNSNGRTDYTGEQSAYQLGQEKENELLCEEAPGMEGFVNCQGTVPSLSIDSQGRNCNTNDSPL

| SMILES | IC50 |
| --- | --- |
| CCOC(=O)c1ccc(NCC(O)CON=C(C2CC2)C2CC2)cc1 (stereo unspecified) [4-(3-Dicyclopropylmethyleneaminooxy-2-hydroxy-propylamino)-benzoic acid ethyl ester] | > 10 µM |
| O=C(O)c1ccc(NCC(O)CON=C(C2CC2)C2CC2)cc1 (stereo unspecified) [4-(3-Dicyclopropylmethyleneaminooxy-2-hydroxy-propylamino)-benzoic acid] | > 10 µM |
| Cc1cccc(NCC(O)CON=C(C2CC2)C2CC2)c1 (stereo unspecified) [Dicyclopropyl-methanone O-(2-hydroxy-3-m-tolylamino-propyl)-oxime] | > 10 µM |
| Cc1ccccc1NCC(O)CON=C(C1CC1)C1CC1 (stereo unspecified) [Dicyclopropyl-methanone O-(2-hydroxy-3-o-tolylamino-propyl)-oxime] | > 10 µM |
| Cc1ccc(NCC(O)CON=C(C2CC2)C2CC2)cc1 (stereo unspecified) [Dicyclopropyl-methanone O-(2-hydroxy-3-p-tolylamino-propyl)-oxime] | > 10 µM |
| CC(C)(Cc1ccc(NCC(O)CON=C(C2CC2)C2CC2)cc1)NCC(O)CON=C(C1CC1)C1CC1 (stereo unspecified) [Dicyclopropyl-methanone O-(3-{2-[4-(3-dicyclopropylmethyleneaminooxy-2-hydroxy-propylamino)-phenyl]-1,1-dimethyl-ethylamino}-2-hydroxy-propyl)-oxime] | 1.5 µM |
| OC(CNc1ccccc1I)CON=C(C1CC1)C1CC1 (stereo unspecified) [Dicyclopropyl-methanone O-[2-hydroxy-3-(2-iodo-phenylamino)-propyl]-oxime] | > 10 µM |
| OC(CNc1cccc(I)c1)CON=C(C1CC1)C1CC1 (stereo unspecified) [Dicyclopropyl-methanone O-[2-hydroxy-3-(3-iodo-phenylamino)-propyl]-oxime] | > 10 µM |
| Oc1ccc(NCC(O)CON=C(C2CC2)C2CC2)cc1 (stereo unspecified) [Dicyclopropyl-methanone O-[2-hydroxy-3-(4-hydroxy-phenylamino)-propyl]-oxime] | > 10 µM |
| OC(CNc1ccc(I)cc1)CON=C(C1CC1)C1CC1 (stereo unspecified) [Dicyclopropyl-methanone O-[2-hydroxy-3-(4-iodo-phenylamino)-propyl]-oxime] | > 10 µM |
| Cc1ccnc(NCC(O)CON=C(C2CC2)C2CC2)c1 (stereo unspecified) [Dicyclopropyl-methanone O-[2-hydroxy-3-(4-methyl-pyridin-2-ylamino)-propyl]-oxime] | > 10 µM |
| O=[N+]([O-])c1ccc(NCC(O)CO[N-][C+](C2CC2)C2CC2)cc1 (stereo unspecified) [Dicyclopropyl-methanone O-[2-hydroxy-3-(4-nitro-phenylamino)-propyl]-oxime] | > 10 µM |
| OC(CNc1ccc(C(F)(F)F)cc1)CON=C(C1CC1)C1CC1 (stereo unspecified) [Dicyclopropyl-methanone O-[2-hydroxy-3-(4-trifluoromethyl-phenylamino)-propyl]-oxime] | > 10 µM |
| Cc1ccc(NCC(O)CON=C(C2CC2)C2CC2)nc1 (stereo unspecified) [Dicyclopropyl-methanone O-[2-hydroxy-3-(5-methyl-pyridin-2-ylamino)-propyl]-oxime] | > 10 µM |
| Cc1cccc(NCC(O)CON=C(C2CC2)C2CC2)n1 (stereo unspecified) [Dicyclopropyl-methanone O-[2-hydroxy-3-(6-methyl-pyridin-2-ylamino)-propyl]-oxime] | > 10 µM |
| CN(CC(O)CON=C(C1CC1)C1CC1)c1ccccc1 (stereo unspecified) [Dicyclopropyl-methanone O-[2-hydroxy-3-(methyl-phenyl-amino)-propyl]-oxime] | > 10 µM |

| SMILES | IC50 |
| --- | --- |
| OC(CNc1ccccn1)CON=C(C1CC1)C1CC1 (stereo unspecified) [Dicyclopropyl-methanone O-[2-hydroxy-3-(pyridin-2-ylamino)-propyl]-oxime] | > 10 µM |
| OC(CNc1ccncc1)CON=C(C1CC1)C1CC1 (stereo unspecified) [Dicyclopropyl-methanone O-[2-hydroxy-3-(pyridin-4-ylamino)-propyl]-oxime] | > 10 µM |
| OC(CNc1nc2ccccc2[nH]1)CON=C(C1CC1)C1CC1 (stereo unspecified) [Dicyclopropyl-methanone O-[3-(1H-benzoimidazol-2-ylamino)-2-hydroxy-propyl]-oxime] | > 10 µM |
| OC(CNc1ccc(Br)cc1)CON=C(C1CC1)C1CC1 (stereo unspecified) [Dicyclopropyl-methanone O-[3-(4-bromo-phenylamino)-2-hydroxy-propyl]-oxime] | > 10 µM |
| CCCCc1ccc(NCC(O)CON=C(C2CC2)C2CC2)cc1 (stereo unspecified) [Dicyclopropyl-methanone O-[3-(4-butyl-phenylamino)-2-hydroxy-propyl]-oxime] | > 10 µM |
| OC(CNc1ccc(Cl)cc1)CON=C(C1CC1)C1CC1 (stereo unspecified) [Dicyclopropyl-methanone O-[3-(4-chloro-phenylamino)-2-hydroxy-propyl]-oxime] | > 10 µM |
| OC(CNc1ccc(F)cc1)CON=C(C1CC1)C1CC1 (stereo unspecified) [Dicyclopropyl-methanone O-[3-(4-fluoro-phenylamino)-2-hydroxy-propyl]-oxime] | > 10 µM |
| CC(C)(C)c1ccc(NCC(O)CON=C(C2CC2)C2CC2)cc1 (stereo unspecified) [Dicyclopropyl-methanone O-[3-(4-tert-butyl-phenylamino)-2-hydroxy-propyl]-oxime] | > 10 µM |
| OC(CNc1nc2ccccc2s1)CON=C(C1CC1)C1CC1 (stereo unspecified) [Dicyclopropyl-methanone O-[3-(benzothiazol-2-ylamino)-2-hydroxy-propyl]-oxime] | > 10 µM |
| OC(CNc1ccccc1-c1ccccc1)CON=C(C1CC1)C1CC1 (stereo unspecified) [Dicyclopropyl-methanone O-[3-(biphenyl-2-ylamino)-2-hydroxy-propyl]-oxime] | > 10 µM |
| OC(CNc1ccc(-c2ccccc2)cc1)CON=C(C1CC1)C1CC1 (stereo unspecified) [Dicyclopropyl-methanone O-[3-(biphenyl-4-ylamino)-2-hydroxy-propyl]-oxime] | > 10 µM |
| CC(C)(Cc1ccc(NCC(O)CO[N-][C+](C2CC2)C2CC2)cc1)[N+](=O)[O-] (stereo unspecified) [Dicyclopropyl-methanone O-{2-hydroxy-3-[4-(2-methyl-2-nitro-propyl)-phenylamino]-propyl}-oxime] | > 10 µM |
| CC(C)(Cc1ccc(N)cc1)NCC(O)CON=C(C1CC1)C1CC1 (stereo unspecified) [Dicyclopropyl-methanone O-{3-[2-(4-amino-phenyl)-1,1-dimethyl-ethylamino]-2-hydroxy-propyl}-oxime] | 2 µM |
| CC(C)(N)Cc1ccc(NCC(O)CON=C(C2CC2)C2CC2)cc1 (stereo unspecified) [Dicyclopropyl-methanone O-{3-[4-(2-amino-2-methyl-propyl)-phenylamino]-2-hydroxy-propyl}-oxime] | > 10 µM |
| OC(CNc1ccccc1)CON=C(C1CC1)C1CC1 (stereo unspecified) [Dicyclopropylmethanone O-(3-anilino-2-hydroxypropyl)oxime] | > 10 µM |

From BindingDB's records for doi:10.1021/jm970338c (University of Grenoble, 1998)
